The values that follow come from patent US20230128907A1, “PARIS POLYPHYLLA SAPONIN EXTRACT WITH ACTIVITY AGAINST MULTIDRUG-RESISTANT BACTERIA AND PREPARATION AND USE THEREOF” (XI'AN KANGYUANSHENG BIOMEDICAL TECHNOLOGY CO., LTD., priority 2021, published 2023).

Common to all, as to type: cell-based
Experiment [1] deals with Salmonella. Nature of the experiment: In vitro antibacterial activity of combination of extract and antibacterial drug (MIC, FIC).
Experiment [2] relates to Salmonella. Nature of the experiment: MIC by liquid micro-dilution method. Also noted: key: “+” means bacterial growth; “−” means no bacterial growth. As for the experimental part: (§1) The minimum inhibitory concentration (MIC) of the extract was determined by liquid microdilution method.
(§2) Twenty-four hours before the experiment, the test strains preserved in low temperature were taken out and placed at room temperature. A small amount of bacterial liquid was drawn with a pipette, inoculated into the sterilized and cooled growth medium, and placed in a 35° C. incubator for 24 hours. A pipette was used to transfer a small amount of activated bacterial colonies to a sterilized dry test tube, diluted with medium to a turbidity similar to that of a 0.5 McFarland turbidimetric tube (1.5×10^8 CFU/mL), and then diluted with medium by […], so that the bacterial suspension concentration reaches 1.0×10^6 CFU/mL (diluted twice before being added to the wells, and the final bacterial concentration in the system being 5×10^5 CFU/mL) for MIC measurement.
(§3) In a sterile 96-well flat-bottom microculture plate, 100 μL of […] positive control solution was added to the No. […] 2-11 well, respectively. No. 12 well was solvent.
(§4) The plate was incubated in a 30° C. incubator for 24 hours, the experimental results were observed, and the minimum inhibitory concentration (MIC) values were determined. […] The difference was counted as “≤[…].” The above experiments were performed in parallel for 3 times. When the MIC value could be accurately repeated or only differed by one concentration, it was accepted. The higher concentration was used as the MIC value. When the MIC value differed by more than two concentrations, the experiment was repeated until it met the until requested.
(In broth dilution the organism is exposed to a series of concentrations in liquid medium.)

For experiment [3], the system named is Multidrug-resistant Pseudomonas aeruginosa 174. Nature of the experiment: MIC by liquid micro-dilution method. Further details: key: “+” means bacterial growth; “−” means no bacterial growth. The protocol: as §1, §2, §3, §4
For experiment [4], the system named is Multidrug-resistant Staphylococcus aureus 222. Nature of the experiment: MIC by liquid micro-dilution method. Also noted: key: “+” means bacterial growth; “−” means no bacterial growth. The protocol: as §1, §2, §3, §4
For experiment [5], the system named is Escherichia coli. Nature of the experiment: MIC by liquid micro-dilution method. Also noted: key: “+” means bacterial growth; “−” means no bacterial growth. The protocol:
as §1, §2, §3, §4

In experiment [6] the test system is Multidrug-resistant Staphylococcus aureus 222. Nature of the experiment: In vitro antibacterial activity of combination of extract and antibacterial drug (MIC, FIC).
Experiment [7] concerns Escherichia coli. Described as above.
For experiment [8], the system named is Multidrug-resistant Pseudomonas aeruginosa 174. Described as above.
Setting [9] is: drug MIC in combination with the Paris Polyphylla Saponin Extract.
[10] abbreviates: Table 4, positive control 128 μg/mL (Table 3).
The mark [11] stands for this setting: Table 6, positive control 128 μg/mL (Table 3).
[12] abbreviates: Table 7, positive control 128 μg/mL (Table 3).
Where [13] appears, read: Table 8, positive control 128 μg/mL (Table 3).

Structures can show the parent of a compound that is named as a salt.

Turning to `C[C@H]1COc2c(N3CCN(C)CC3)c(F)cc3c(=O)c(C(=O)O)cn1c23` [Levofloxacin hydrochloride], the “Combination Treatment MIC Combination” value in experiment [1] (setting [9]) was 2 µg/mL. Moreover, in experiment [1] (drug alone), the “Combination Treatment MIC Single” value worked out at 4 µg/mL. Further, the bacterial growth entry in experiment [2] (setting [10]), in experiment [2] (setting [11]), in experiment [2] (setting [12]) and in experiment [2] (setting [13]) was “−” each time.
In the case of `CC1CCC2(OC1)OC1CC3C4CC=C5CC(OC6OC(CO)C(OC7OC(C)C(OC8OC(C)C(O)C(O)C8O)C(O)C7O)C(O)C6OC6OC(C)C(O)C(O)C6O)CCC5(C)C4CCC3(C)C1(O)C2C` (stereo not drawn) [Polyphyllin VII], the bacterial growth result in experiment [2] (Table 8, 0.25 μg/mL) is “+”; in experiment [2] (Table 8, 0.5 μg/mL), “+”; in experiment [2] (Table 8, 1 μg/mL), “+”; in experiment [2] (Table 8, 2 μg/mL), “+”; in experiment [2] (Table 8, 4 μg/mL), “+”; in experiment [2] (Table 8, 8 μg/mL), “+”. In addition, the bacterial growth result in experiment [2] (Table 8, 16 μg/mL) is “+”; in experiment [2] (Table 8, 32 μg/mL), “+”; in experiment [2] (Table 8, 64 μg/mL) it was “+”; in experiment [2] (Table 8, 128 μg/mL) it was “+”; in experiment [2] (Table 8, 256 μg/mL), “+”; in experiment [2] (Table 8, 512 μg/mL), “+”. In addition, the bacterial growth entry is “+” in experiment [2] (Table 8, 1024 μg/mL); “+” in experiment [3] (Table 8, 0.25 μg/mL); “+” in experiment [3] (Table 8, 0.5 μg/mL); “+” in experiment [3] (Table 8, 1 μg/mL); “+” in experiment [3] (Table 8, 2 μg/mL); “+” in experiment [3] (Table 8, 4 μg/mL). In addition, the bacterial growth result in experiment [3] (Table 8, 8 μg/mL) was “+”; in experiment [3] (Table 8, 16 μg/mL), “+”; in experiment [3] (Table 8, 32 μg/mL), “+”; in experiment [3] (Table 8, 64 μg/mL), “+”; in experiment [3] (Table 8, 128 μg/mL), “+”; in experiment [3] (Table 8, 256 μg/mL), “+”. The bacterial growth entry in experiment [3] (Table 8, 512 μg/mL) is recorded as “+”; in experiment [3] (Table 8, 1024 μg/mL), “+”; in experiment [4] (Table 8, 0.25 μg/mL) it was “+”; in experiment [4] (Table 8, 0.5 μg/mL) it was “+”; in experiment [4] (Table 8, 1 μg/mL) it was “+”; in experiment [4] (Table 8, 2 μg/mL) it was “+”. The bacterial growth result in experiment [4] (Table 8, 4 μg/mL) is “+”; in experiment [4] (Table 8, 8 μg/mL), “+”; in experiment [4] (Table 8, 16 μg/mL), “+”; in experiment [4] (Table 8, 32 μg/mL), “+”; in experiment [4] (Table 8, 64 μg/mL), “+”; in experiment [4] (Table 8, 128 μg/mL), “+”. The bacterial growth result in experiment [4] (Table 8, 256 μg/mL) is listed as “+”; in experiment [4] (Table 8, 512 μg/mL), “+”; in experiment [4] (Table 8, 1024 μg/mL) it was “+”; in experiment [5] (Table 8, 0.25 μg/mL) it was “+”; in experiment [5] (Table 8, 0.5 μg/mL), “+”; in experiment [5] (Table 8, 1 μg/mL), “+”. Besides, the bacterial growth result is “+” in experiment [5] (Table 8, 2 μg/mL); “+” in experiment [5] (Table 8, 4 μg/mL); “+” in experiment [5] (Table 8, 8 μg/mL); “+” in experiment [5] (Table 8, 16 μg/mL); “+” in experiment [5] (Table 8, 32 μg/mL); “+” in experiment [5] (Table 8, 64 μg/mL). Besides, the bacterial growth result is “+” in experiment [5] (Table 8, 128 μg/mL); “+” in experiment [5] (Table 8, 256 μg/mL); “+” in experiment [5] (Table 8, 512 μg/mL); “+” in experiment [5] (Table 8, 1024 μg/mL).
Consider `CC1CCC2(OC1)OC1CC3C4CC=C5CC(OC6OC(CO)C(OC7OC(C)C(OC8OC(C)C(O)C(O)C8O)C(O)C7O)C(O)C6OC6OC(C)C(O)C(O)C6O)CCC5(C)C4CCC3(C)C1C2C` (stereo not drawn) [Polyphyllin II], for which the bacterial growth entry was “+” in experiment [2] (Table 6, 0.25 μg/mL); “+” in experiment [2] (Table 6, 0.5 μg/mL); “+” in experiment [2] (Table 6, 1 μg/mL); “+” in experiment [2] (Table 6, 2 μg/mL); “+” in experiment [2] (Table 6, 4 μg/mL); “+” in experiment [2] (Table 6, 8 μg/mL). The bacterial growth result in experiment [2] (Table 6, 16 μg/mL) is recorded as “+”; in experiment [2] (Table 6, 32 μg/mL) it was “+”; in experiment [2] (Table 6, 64 μg/mL) it was “+”; in experiment [2] (Table 6, 128 μg/mL) it was “+”; in experiment [2] (Table 6, 256 μg/mL) it was “+”; in experiment [2] (Table 6, 512 μg/mL), “+”. Besides, the bacterial growth entry in experiment [2] (Table 6, 1024 μg/mL) is recorded as “+”; in experiment [4] (Table 6, 0.25 μg/mL), “+”; in experiment [4] (Table 6, 0.5 μg/mL), “+”; in experiment [4] (Table 6, 1 μg/mL) it was “+”; in experiment [4] (Table 6, 2 μg/mL) it was “+”; in experiment [4] (Table 6, 4 μg/mL), “+”. The bacterial growth result is listed as “+” in experiment [4] (Table 6, 8 μg/mL); “+” in experiment [4] (Table 6, 16 μg/mL); “+” in experiment [4] (Table 6, 32 μg/mL); “+” in experiment [4] (Table 6, 64 μg/mL); “+” in experiment [4] (Table 6, 128 μg/mL); “+” in experiment [4] (Table 6, 256 μg/mL). Further, the bacterial growth result in experiment [4] (Table 6, 512 μg/mL) is listed as “+”; in experiment [4] (Table 6, 1024 μg/mL) it was “+”; in experiment [5] (Table 6, 0.25 μg/mL), “+”; in experiment [5] (Table 6, 0.5 μg/mL), “+”; in experiment [5] (Table 6, 1 μg/mL), “+”; in experiment [5] (Table 6, 2 μg/mL) it was “+”. Further, the bacterial growth entry in experiment [5] (Table 6, 4 μg/mL) is recorded as “+”; in experiment [5] (Table 6, 8 μg/mL), “+”; in experiment [5] (Table 6, 16 μg/mL), “+”; in experiment [5] (Table 6, 32 μg/mL), “+”; in experiment [5] (Table 6, 64 μg/mL) it was “+”; in experiment [5] (Table 6, 128 μg/mL) it was “+”. Also, the bacterial growth result was “+” in experiment [5] (Table 6, 256 μg/mL); “+” in experiment [5] (Table 6, 512 μg/mL); “+” in experiment [5] (Table 6, 1024 μg/mL).
For `Cc1nnc(SCC2=C(C(=O)O)N3C(=O)[C@@H](NC(=O)Cn4cnnn4)[C@H]3SC2)s1` [Cefazolin sodium], the bacterial growth entry in experiment [4] (setting [10]), in experiment [4] (setting [11]) and in experiment [4] (setting [13]) was “−” in each case. Further, in experiment [6] (setting [9]), the “Combination Treatment MIC Combination” value was found to be 16 µg/mL. Moreover, in experiment [6] (drug alone), the “Combination Treatment MIC Single” value worked out at 128 µg/mL.
Regarding `C[C@@H]1CC[C@@]2(OC1)O[C@H]1C[C@H]3[C@@H]4CC=C5C[C@@H](O[C@@H]6O[C@H](CO)[C@@H](O)[C@H](O)[C@H]6O[C@@H]6O[C@@H](C)[C@H](O)[C@@H](O)[C@H]6O)CC[C@]5(C)[C@H]4CC[C@]3(C)[C@@]1(O)[C@@H]2C` [Polyphyllin VI], the bacterial growth entry in experiment [2] (Table 7, Conc. 0.25 μg/mL) was “+”; in experiment [2] (Table 7, Conc. 0.5 μg/mL) it was “+”; in experiment [2] (Table 7, Conc. 1 μg/mL), “+”; in experiment [2] (Table 7, Conc. 2 μg/mL) it was “+”; in experiment [2] (Table 7, Conc. 4 μg/mL), “+”; in experiment [2] (Table 7, Conc. 8 μg/mL), “+”. For the same molecule, the bacterial growth result in experiment [2] (Table 7, Conc. 16 μg/mL) was “+”; in experiment [2] (Table 7, Conc. 32 μg/mL), “+”; in experiment [2] (Table 7, Conc. 64 μg/mL) it was “+”; in experiment [2] (Table 7, Conc. 128 μg/mL), “+”; in experiment [5] (Table 7, Conc. 0.25 μg/mL), “+”; in experiment [5] (Table 7, Conc. 0.5 μg/mL) it was “+”. Moreover, the bacterial growth entry in experiment [5] (Table 7, Conc. 1 μg/mL) was “+”; in experiment [5] (Table 7, Conc. 2 μg/mL), “+”; in experiment [5] (Table 7, Conc. 4 μg/mL), “+”; in experiment [5] (Table 7, Conc. 8 μg/mL), “+”; in experiment [5] (Table 7, Conc. 16 μg/mL), “+”; in experiment [5] (Table 7, Conc. 32 μg/mL), “+”. In addition, the bacterial growth entry in experiment [5] (Table 7, Conc. 64 μg/mL) is given as “+”; in experiment [5] (Table 7, Conc. 128 μg/mL), “+”.
For the molecule `CO/N=C(\C(=O)N[C@@H]1C(=O)N2C(C(=O)O)=C(CSc3nc(=O)c(=O)[nH]n3C)CS[C@H]12)c1csc(N)n1` [Ceftriaxone sodium], the bacterial growth result in experiment [5] (setting [10]), in experiment [5] (setting [11]), in experiment [5] (setting [12]) and in experiment [5] (setting [13]) was “−” each time. Moreover, the “Combination Treatment MIC Combination” value in experiment [7] (setting [9]) amounted to 0.5 µg/mL. Besides, the “Combination Treatment MIC Single” value in experiment [7] (drug alone) is 2 µg/mL.
Regarding Gentamicin sulfate, the “Combination Treatment MIC Combination” value in experiment [8] (setting [9]) came to 0.125 µg/mL. The “Combination Treatment MIC Single” value in experiment [8] (drug alone) came to 0.125 µg/mL. Moreover, the bacterial growth result in experiment [3] (setting [10]) and in experiment [3] (setting [13]) was “−” each time.
